Assay results from patent US8889112B2, “Ophthalmic formulations including selective alpha 1 antagonists” (Ocularis Pharma, LLC, priority 1999, dated 2014).
Where “and” joins values, the source holds several entries; their conditions need not be identical. Equal entries are not always repeated. Structures can show the parent of a compound that is named as a salt. Where two headings read alike, the source gives them in different places.

Key:
[1] = system: human eye; conditions: for Effectiveness in reducing pupil dilation in dim light: topical, phenoxybenzamine, prazosin, tolamine 0.1% to 5%, labetalol S,S and S,R isomers 0.1% to 2%; for Duration of effect: single administration per day, eye drop or drop on soft contact lens
Description: A preferred concentration of about 1 to about 5 milligrams of active agent per cc of total formulation volume in an embodiment may be administered by placing a single drop on a moist soft contact lens, and inserting the lens for about 15 minutes to about 45 minutes at one time per day. […] The drop may be administered in a one to five milligram per cc concentration directly to the eye as a recommended daily or BID dosing according to an embodiment of the present invention.
A 5 mg/ml vial of phentolamine was diluted in an artificial tear formulation to approximately 6.0 cc of solution.
Labetalol, a potent beta adrenergic receptor antagonist, consists of four isomers, two of which have some alpha 1 antagonist activity.

[2] = system: human eye; conditions: cited from earlier work
[3] = system: human eye; experiment: Effect of alpha adrenergic receptor antagonists on pupil dilation (Table 1, patients); assay type: in vivo; conditions: for Effect on pupil diam. in darkness (mm): pupil diameter after drug, from 7.5 mm before, topical, 5 mg/ml (phentolamine 3.3 mg/ml via soft contact lens for 30 minutes)
Excerpt: However, only the imidazolines obtain the desired reduction in dilation without causing excessive redness of the eye. In addition, the present invention in an embodiment provides a sub-class of alpha antagonists that can act as a sole active component in an ophthalmic medication to effectively reduce pupil light reflex while providing minimal, if any, redness response upon application thereof to the eye. In an embodiment, the sub-class of alpha antagonists includes alpha 1 selective antagonists, including alpha 1a selective antagonists, such as tamsulosin.

[4] = system: human eye; experiment: Effect of phentolamine eye drops on visual acuity in dim light (Table 3); assay type: in vivo; conditions: one line per subject
Excerpt: The results illustrate the benefit that is derived from reducing pupil diameter by 1 mm or more and/or pupil area by 20% or more in dim light conditions pursuant to an embodiment. In this regard, a significant increase in spherical aberrations is typically found per each one millimeter of increase in pupil size diameter above 5 mm. These aberrations generally increase as a function of severity of the refractive error, particularly increases in the myopic spherical equivalent of refractive error. Coma may increase, as well as other higher order aberrations, as pupil size diameter increases, again especially as refractive error increases. Thus, a reduction in pupil diameter by 1 mm or more and/or pupil area by 20% or more can effectively act to improve vision in dim light conditions. As previously discussed, the present invention contemplates the use of a single active agent, preferably an alpha 1a selective antagonist, that can optimize pupil light reflex while minimizing, if not eliminating, redness. [table]

[5] = system: human eye; experiment: Effect of phentolamine 0.35% on pupil diameter in dim and bright light (Table 2); assay type: in vivo
[6] = duration of effect on pupil, 5 mg/ml (phentolamine 3.3 mg/ml via soft contact lens)
[7] = pupil diameter after 3.3 mg/cc, single drop on soft contact lens placed for 30 minutes, one line per subject
[8] = pupil diameter before drug (baseline), one line per subject

Question: What does the source list for `Cc1ccccc1N1CCN(CCc2nnc3n2CCCC3)CC1` [Dapiprazole, 5,6,7,8 tetrahydro-3-[2-(4-o,tolyl-1-piperazinyl)ethyl]-8-triazolo[4,3-a]pyridine hydrochloride]?
Answer: Redness / vasodilation of the eye ([1]; in vivo): unacceptably high levels of eye redness with severe blood vessel dilation; Effectiveness in reducing pupil dilation in dim light [1]: minimal if any clinically significant effect; Redness and chemosis upon instillation ([2]; 0.5% solution): substantial increased redness and conjunctival chemosis; Effectiveness in reducing pupil size in dim light ([2]; topical, compared to phentolamine and phenoxybenzamine, U.S. Pat. No. 6,515,006): not as effective; Duration [3, 6]: 5 to 12 h; Effect on pupil diam. in darkness (mm) [3]: 7.5 -> 7 mm

Question: With `CC(CCc1ccccc1)NCC(O)c1ccc(O)c(C(N)=O)c1` (stereo not drawn) [Labetalol] as the compound, how does the “Effectiveness in reducing pupil dilation in dim light” value [1] read?
Answer: modestly effective

Question: With `CC(COc1ccccc1)N(CCCl)Cc1ccccc1` (stereo not drawn) [Phenoxybenzamine] as the compound, how does the “Redness / vasodilation of the eye” value ([1]; topical application as only active compound) read?
Answer: induce much more vasodilation and congestion

Question: And the “Redness / vasodilation of the eye” value ([1]; topical application as only active compound, listed as phenoxybenzamine)?
Answer: unacceptably high level of redness

Question: And the “Effectiveness in reducing pupil dilation in dim light” value [1]?
Answer: have not been as effective as phentolamine

Question: What about the “Duration (hrs)” value [3, 6] of the same compound?
Answer: ≧20 hrs

Question: And the “Effect on pupil diam. in darkness (mm)” value [3]?
Answer: 7.5 -> 5.5 mm

Question: For `Cc1ccc(N(CC2=NCCN2)c2cccc(O)c2)cc1` [Phentolamine], which “Redness / vasodilation of the eye” value ([1]; in vivo) is on record?
Answer: very slight, transient redness

Question: And the Duration of effect [1]?
Answer: 20 to 24 h

Question: And the Duration of effect ([1]; listed as phentolamine)?
Answer: 20 to 24 h

Question: And the “Pupil Diameter in Dim Light Post-Drug mm” value ([4]; after phentolamine eye drops)?
Answer: 6.9 mm (2×) and 7.1 mm (2×) and 5.9 mm (2×) and 7.5 mm and 6.5 mm and 7.4 mm

Question: What about the “Pupil Diameter in Dim Light Pre-Drug mm” value ([4]; before drug (baseline)) of the same compound?
Answer: 7.7 mm and 8.5 mm and 7.9 mm (3×) and 7.8 mm (2×) and 8.2 mm (2×)

Question: What about the “Pupil Diameter Change mm” value ([4]; reduction in dim light, pre minus post) of the same compound?
Answer: 0.8 mm (2×) and 1.4 mm (2×) and 2.0 mm and 0.9 mm and 0.4 mm and 1.1 mm and 1.9 mm

Question: What about the “Pupil Area Change %” value ([4]; reduction of pupil area in dim light) of the same compound?
Answer: 20% and 30% and 44% and 22% and 10% and 25% and 32% and 19% and 43%

Question: And the “Dim Light Contrast Post-Drug” value ([4]; visual acuity after phentolamine eye drops)?
Answer: 20/25 and 20/22 and 20/20 and 20/24 and 20/38 and 20/21 (2×) and 20/32 and 20/50

Question: And the “Dim Light Contrast Pre-Drug” value ([4]; visual acuity before drug (baseline))?
Answer: 20/29 (2×) and 20/35 and 20/32 (2×) and 20/63 and 20/38 and 20/40 and 20/53

Question: What about the “Bright Light Post mm” value [5, 7] of the same compound?
Answer: 3.0 mm (2×) and 2.5 mm (3×)

Question: And the “Dim Light Post mm” value [5, 7]?
Answer: 4.0 mm (3×) and 3.0 mm and 3.5 mm

Question: And the “Bright Light Pre mm” value [5, 8]?
Answer: 4.0 mm and 3.0 mm (3×) and 3.5 mm

Question: And the “Dim Light Pre mm” value [5, 8]?
Answer: 7.5 mm (2×) and 3.5 mm and 4.0 mm and 7.0 mm

Question: And the halos reduced ([5]; subject, post drug)?
Answer: 70% reduced; depth

Question: And the “Duration” value [3, 6]?
Answer: 20 to 40 h

Question: What about the “Effect on pupil diam. in darkness (mm)” value [3] of the same compound?
Answer: 7.5 -> 4.0 mm

Question: For `COc1cc2nc(N3CCN(C(=O)c4ccco4)CC3)nc(N)c2cc1OC` [Prazosin], which “Duration” value [3, 6] is on record?
Answer: 5 to 12 h

Question: And the “Effect on pupil diam. in darkness (mm)” value [3]?
Answer: 7.5 -> 6 mm

Question: For `CC[C@@H]1C(=O)OC[C@@H]1Cc1cncn1C` [pilocarpine], which “Duration of miotic effect” value ([2]; in vivo) is on record?
Answer: only a few hours

Question: What about the Side effects ([2]; in vivo) of the same compound?
Answer: brow ache, ciliary muscle contraction and pseudo myopia, excessive dimness when first applied

Question: What about the “Pupil size when first applied” value ([2]; usually) of the same compound?
Answer: less than 2 mm

Question: With Tolamine as the compound, how does the “Effectiveness in reducing pupil dilation in dim light” value [1] read?
Answer: slight pupillary reduction in dilation in dim light but appears to be less effective than phentolamine

Question: And the “Duration” value [3, 6]?
Answer: 5 to 12 h

Question: And the “Effect on pupil diam. in darkness (mm)” value [3]?
Answer: 7.5 -> 6 mm
